According to patent US20100029696A1, “INDOLYLAMINO QUINAZOLINE DERIVATIVES AS ANTITUMOR AGENTS” (priority 2005, published 2010):

Key:
erbB2 tyrosine kinase = target: T1, erbB2 tyrosine kinase (Homo sapiens, UniProt P04626); test: Protein tyrosine kinase phosphorylation assay, Test (a), erbB2; format: biochemical; conditions: ATP at Km concentration; read-out: IC50 Test (a): Inhibition of erbB2 tyrosine kinase protein phosphorylation
T1 construct: Recombinant intracellular fragments of EGFR, erbB2 and erbB4; made in house; host or cells: baculovirus/Sf21 insect cells
T1 sequence (P04626 676-1255 limits assumed): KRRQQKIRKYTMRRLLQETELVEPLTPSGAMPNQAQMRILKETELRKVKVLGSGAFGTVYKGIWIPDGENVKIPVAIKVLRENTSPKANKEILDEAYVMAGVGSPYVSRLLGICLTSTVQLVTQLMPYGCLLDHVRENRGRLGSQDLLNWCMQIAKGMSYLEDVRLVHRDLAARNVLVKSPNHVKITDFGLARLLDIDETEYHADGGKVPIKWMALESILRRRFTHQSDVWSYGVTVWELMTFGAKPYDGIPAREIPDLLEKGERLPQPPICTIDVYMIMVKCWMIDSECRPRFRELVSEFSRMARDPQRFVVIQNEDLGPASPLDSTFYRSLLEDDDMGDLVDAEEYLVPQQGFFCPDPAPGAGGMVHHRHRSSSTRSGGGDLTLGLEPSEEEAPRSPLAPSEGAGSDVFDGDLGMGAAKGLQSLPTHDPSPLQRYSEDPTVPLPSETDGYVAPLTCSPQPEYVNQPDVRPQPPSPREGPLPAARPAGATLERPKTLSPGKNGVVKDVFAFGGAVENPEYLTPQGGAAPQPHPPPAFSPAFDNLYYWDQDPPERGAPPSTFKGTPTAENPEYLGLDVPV
Description: (§1) This test measures the ability of a test compound to inhibit the phosphorylation of a tyrosine containing polypeptide substrate by EGFR, erbB2 and erbB4 tyrosine kinase enzyme.
(§2) Recombinant intracellular fragments of EGFR, erbB2 and erbB4 (accession numbers X00588, X03363 and L07868 respectively) were cloned and expressed in the baculovirus/Sf21 system. […]
(§3) Constitutive kinase activity of these recombinant proteins was determined by their ability to phosphorylate a synthetic peptide (made up of a random co-polymer of Glutamic Acid, Alanine and Tyrosine in the ratio of 6:3:1). […]
(§4) The immobilised phospho-peptide product of the reaction was detected by immunological methods. […] After further washing, HRP activity in each well of the plate was measured colorimetrically using 22′-Azino-di-[3-ethylbenzthiazoline sulfonate (6)]diammonium salt crystals (ABTS™ from Roche) as a substrate.
(§5) Quantification of colour development and thus enzyme activity was achieved by the measurement of absorbance at 405 nm on a Molecular Devices ThermoMax microplate reader. Kinase inhibition for a given compound was expressed as an IC50 value. […] The range of phosphorylation was calculated from the positive (vehicle plus ATP) and negative (vehicle minus ATP) control values.

EGFR tyrosine kinase = target: T2, EGFR tyrosine kinase (Homo sapiens, UniProt P00533); test: Protein tyrosine kinase phosphorylation assay, Test (a), EGFR; format: biochemical; conditions: ATP at Km concentration; read-out: IC50 Test (a): Inhibition of EGFR tyrosine kinase protein phosphorylation
T2 construct: Recombinant intracellular fragments of EGFR, erbB2 and erbB4; made in house; host or cells: baculovirus/Sf21 insect cells
T2 sequence (P00533 669-1210 limits assumed): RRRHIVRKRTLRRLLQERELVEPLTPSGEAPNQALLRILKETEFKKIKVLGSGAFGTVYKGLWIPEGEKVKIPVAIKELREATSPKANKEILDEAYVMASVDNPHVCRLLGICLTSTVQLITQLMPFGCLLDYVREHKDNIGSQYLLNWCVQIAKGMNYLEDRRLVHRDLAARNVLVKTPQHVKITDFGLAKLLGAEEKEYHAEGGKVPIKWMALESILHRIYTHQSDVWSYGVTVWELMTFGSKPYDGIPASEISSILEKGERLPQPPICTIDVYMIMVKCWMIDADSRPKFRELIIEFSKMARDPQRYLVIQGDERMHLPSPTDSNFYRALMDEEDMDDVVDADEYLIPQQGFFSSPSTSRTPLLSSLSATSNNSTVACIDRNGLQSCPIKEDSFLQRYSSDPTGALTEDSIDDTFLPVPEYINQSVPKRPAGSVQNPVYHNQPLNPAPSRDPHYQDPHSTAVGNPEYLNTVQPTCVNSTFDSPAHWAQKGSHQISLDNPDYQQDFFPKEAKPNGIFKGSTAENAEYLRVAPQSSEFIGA
Description: as §1, §2, §3, §4, §5

[1] = target: T3, erbB2 in MCF7 derived cell line (Clone 24 cells) (Homo sapiens, UniProt P04626); test: Clone 24 phospho-erbB2 cell assay, Test (c); format: cell-based; conditions: MCF7 derived Clone 24 cells, 4 hours; read-out: IC50 Test (c): Inhibition of erbB2 tyrosine kinase protein phosphorylation
T3 construct: a cell line that overexpresses full length wild type erbB2 protein; expressed in transfected cells; host or cells: MCF7 (breast carcinoma) cells, 'Clone 24'
T3 sequence (P04626 23-1255): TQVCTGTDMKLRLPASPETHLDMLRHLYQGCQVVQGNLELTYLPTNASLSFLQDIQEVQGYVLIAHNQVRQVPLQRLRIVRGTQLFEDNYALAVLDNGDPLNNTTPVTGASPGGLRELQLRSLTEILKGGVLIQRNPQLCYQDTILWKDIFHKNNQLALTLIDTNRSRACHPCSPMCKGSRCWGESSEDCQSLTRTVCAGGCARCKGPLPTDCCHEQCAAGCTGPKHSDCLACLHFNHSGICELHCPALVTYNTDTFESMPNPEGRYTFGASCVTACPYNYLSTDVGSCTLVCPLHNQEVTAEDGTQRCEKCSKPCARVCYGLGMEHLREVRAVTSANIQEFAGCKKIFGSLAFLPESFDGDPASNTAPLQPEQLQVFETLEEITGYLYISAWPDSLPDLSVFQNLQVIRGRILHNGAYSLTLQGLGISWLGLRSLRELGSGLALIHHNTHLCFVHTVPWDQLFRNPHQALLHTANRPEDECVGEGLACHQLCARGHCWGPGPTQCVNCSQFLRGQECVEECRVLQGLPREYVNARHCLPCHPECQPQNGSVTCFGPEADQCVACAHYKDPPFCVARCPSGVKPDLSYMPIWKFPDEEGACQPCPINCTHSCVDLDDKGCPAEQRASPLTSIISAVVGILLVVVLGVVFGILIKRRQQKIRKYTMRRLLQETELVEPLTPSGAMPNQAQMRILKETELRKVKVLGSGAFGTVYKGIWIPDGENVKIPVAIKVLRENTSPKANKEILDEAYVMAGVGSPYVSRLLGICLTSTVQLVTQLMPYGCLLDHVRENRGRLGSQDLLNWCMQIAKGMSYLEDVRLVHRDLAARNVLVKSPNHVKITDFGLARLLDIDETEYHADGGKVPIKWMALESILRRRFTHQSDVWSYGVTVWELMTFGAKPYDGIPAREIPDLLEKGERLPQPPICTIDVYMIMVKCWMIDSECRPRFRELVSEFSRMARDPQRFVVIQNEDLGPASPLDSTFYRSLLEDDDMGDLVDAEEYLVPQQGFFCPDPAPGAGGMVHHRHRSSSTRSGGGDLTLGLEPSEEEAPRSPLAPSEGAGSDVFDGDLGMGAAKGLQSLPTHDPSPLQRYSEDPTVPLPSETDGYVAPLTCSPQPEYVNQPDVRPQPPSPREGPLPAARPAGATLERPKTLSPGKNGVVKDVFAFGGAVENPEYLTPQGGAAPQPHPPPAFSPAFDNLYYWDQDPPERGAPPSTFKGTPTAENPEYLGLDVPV
Description: This immunofluorescence end point assay measures the ability of a test compound to inhibit the phosphorylation of erbB2 in a MCF7 (breast carcinoma) derived cell line which was generated by transfecting MCF7 cells with the full length erbB2 gene using standard methods to give a cell line that overexpresses full length wild type erbB2 protein (hereinafter ‘Clone 24’ cells).
Clone 24 cells were cultured in Growth Medium (phenol red free Dulbecco's modified Eagle's medium (DMEM) containing 10% foetal bovine serum, 2 mM glutamine and 1.2 mg/ml G418) in a 7.5% CO2 air incubator at 37° C. […] Cell density was measured using a haemocytometer and viability was calculated using Trypan Blue solution before being further diluted in Growth Medium and seeded at a density of 1×10^4 cells per well (in 100 μl) into clear bottomed 96 well plates (Packard, No. 6005182). […]
Immunostaining was performed at room temperature. […] Plates were analysed within six hours of completing the immunostaining.
The Fluorescence signal is each well was measured using an Acumen Explorer Instrument (Acumen Bioscience Ltd.), a plate reader that can be used to rapidly quantitate features of images generated by laser-scanning. […]

IC50 (erbB2 tyrosine kinase) [nM] | IC50 (EGFR tyrosine kinase) [nM] | IC50 [1] [nM] | SMILES
1 | 1 | – | O=C(CO)N1CCCC[C@@H]1COc1cccc2ncnc(Nc3ccc4c(ccn4Cc4ccccn4)c3)c12 [Example 1, 2-Oxo-2-((2R)-2-{[(4-{[1-(pyridin-2-ylmethyl)-1H-indol-5-yl]amino}quinazolin-5-yl)oxy]methyl}piperidin-1-yl)ethanol]
38 | 1 | 35 | O=C(CO)N1CCCC[C@@H]1COc1cccc2ncnc(Nc3ccc4c(ccn4Cc4cscn4)c3)c12 [Example 2, 2-Oxo-2-((2R)-2-{[(4-{[1-(1,3-thiazol-4-ylmethyl)-1H-indol-5-yl]amino}quinazolin-5-yl)oxy]methyl}piperidin-1-yl)ethanol]
